According to patent publication US20130281399A1, “TREATMENT OF DISEASES BY EPIGENETIC REGULATION” (RVX Therapeutics Inc., priority 2012, published 2013):

Target: T1, Brd4 bromodomain 1 (Homo sapiens, UniProt O60885)
T1 construct: made in house; host or cells: E. coli BL21(DE3)
Experiment: Inhibition of binding of tetra-acetylated histone H4 to Brd4 bromodomain 1 (TR-FRET)
Conditions: His-tagged Brd4 bromodomain 1 200 nM, tetra-acetylated histone H4 peptide 25-50 nM, 2 hours room temperature
Procedure: Proteins were cloned and overexpressed with a N-terminal 6×His tag, then purified by nickel affinity followed by size exclusion chromatography. Briefly, E. coli BL21(DE3) cells were transformed with a recombinant expression vector encoding N-terminally Nickel affinity tagged bromodomains from Brd2, Brd3, Brd4. Cell cultures were incubated at 37° C. with shaking to the appropriate density and induced overnight with IPTG. The supernatant of lysed cells was loaded onto Ni-IDA column for purification. Eluted protein was pooled, concentrated and further purified by size exclusion chromatography. Fractions representing monomeric protein were pooled, concentrated, aliquoted, and frozen at −80° C. for use in subsequent experiments.
For inhibition assays, serially diluted test compound was added to these reactions in a 0.2% final concentration of DMSO. Final buffer concentrations were 30 mM HEPES pH 7.4, 30 mM NaCl, 0.3 mM CHAPS, 20 mM phosphate pH 7.0, 320 mM KF, 0.08% BSA). […] The binding inhibitory activity was shown by a decrease in 665 nm fluorescence relative to 620 nm. IC50 values were determined from a dose response curve.

Row | Structure (SMILES) | FRET activity (<50 uM)
1 | COc1cc(OC)c2c(=O)[nH]c(-c3ccc(N4CCN(C(C)=O)C(C)C4)cc3)nc2c1 (centres unmarked) [Example 38, 2-(4-(4-Acetyl-3-methylpiperazin-1-yl)phenyl)-5,7-dimethoxyquinazolin-4(3H)-one] | Active
2 | COc1cc(OC)c2c(=O)[nH]c(-c3ccc(N4CCC(NC(C)=O)C4)cc3)nc2c1 (centres unmarked) [Example 39, N-(1-(4-(5,7-Dimethoxy-4-oxo-3,4-dihydroquinazolin-2-yl)phenyl)pyrrolidin-3-yl)acetamide] | Active
3 | COc1cc(OC)c2c(=O)[nH]c(-c3ccc(N4CCC(N(C(C)=O)C(C)C)CC4)cc3)nc2c1 [Example 40, N-(1-(4-(5,7-dimethoxy-4-oxo-3,4-dihydroquinazolin-2-yl)phenyl)piperidin-4-yl)-N-isopropylacetamide] | Inactive
4 | CC(C)N1CCN(c2ccc(-c3nc4cccc(Cl)c4c(=O)[nH]3)cc2)CC1 [Example 41, 5-Chloro-2-(4-(4-isopropylpiperazin-1-yl)phenyl)quinazolin-4(3H)-one] | Inactive
5 | COc1cc(OC)c2c(=O)[nH]c(-c3ccc(N4C[C@@H](C)N(C(C)C)[C@@H](C)C4)cc3)nc2c1 [Example 42, 2-(4-((3R,5S)-4-Isopropyl-3,5-dimethylpiperazin-1-yl)phenyl)-5,7-dimethoxyquinazolin-4(3H)-one] | Active
6 | COc1cc(OC)c2c(=O)[nH]c(-c3ccc(C4CCNCC4)cc3)nc2c1 [Example 43, 5,7-Dimethoxy-2-(4-(piperidin-4-yl)phenyl)quinazolin-4(3H)-one] | Active
7 | CNC1CCN(c2ccc(-c3nc4cc(OC)cc(OC)c4c(=O)[nH]3)cc2)C1 (centres unmarked) [Example 44, 5,7-Dimethoxy-2-(4-(3-(methylamino)pyrrolidin-1-yl)phenyl)quinazolin-4(3H)-one] | Active
8 | COc1cc(OC)c2c(=O)[nH]c(-c3ccc(N4CCC(N(C)C(C)=O)C4)cc3)nc2c1 (centres unmarked) [Example 46, N-(1-(4-(5,7-dimethoxy-4-oxo-3,4-dihydroquinazolin-2-yl)phenyl)pyrrolidin-3-yl)-N-methylacetamide] | Active
9 | COc1cc(OC)c2c(=O)[nH]c(-c3ccc(N4CCC(NC(C)C)CC4)cc3)nc2c1 [Example 47, 2-(4-(4-(Isopropylamino)piperidin-1-yl)phenyl)-5,7-dimethoxyquinazolin-4(3H)-one] | Active
10 | COc1cc(OC)c2c(=O)[nH]c(-c3ccc(N4CCNC(C)C4)cc3)nc2c1 (centres unmarked) [Example 48, 5,7-Dimethoxy-2-(4-(3-methylpiperazin-1-yl)phenyl)quinazolin-4(3H)-one] | Active
11 | COc1cc(OC)c2c(=O)[nH]c(-c3ccc(N4CCC(N(Cc5ccccc5)C(C)=O)CC4)nc3)nc2c1 [Example 49, N-Benzyl-N-(1-(5-(5,7-dimethoxy-4-oxo-3,4-dihydroquinazolin-2-yl)pyridin-2-yl)piperidin-4-yl)acetamide] | Active
12 | COc1cc(OC)c2c(=O)[nH]c(-c3ccc(N4CCC(NCc5ccccc5)CC4)nc3)nc2c1 [Example 50, 2-(6-(4-(Benzylamino)piperidin-1-yl)pyridin-3-yl)-5,7-dimethoxyquinazolin-4(3H)-one] | Active
13 | COc1cc(OC)c2c(=O)[nH]c(-c3ccc(N4CCN(C=O)CC4)cc3)nc2c1 [Example 51, 4-(4-(5,7-Dimethoxy-4-oxo-3,4-dihydroquinazolin-2-yl)phenyl)piperazine-1-carbaldehyde] | Active
14 | COc1cc(OC)c2c(=O)[nH]c(-c3ccc(N4CCC(=O)CC4)cc3)nc2n1 [Example 52, 5,7-Dimethoxy-2-(4-(4-oxopiperidin-1-yl)phenyl)pyrido[2,3-d]pyrimidin-4(3H)-one] | Inactive
15 | COc1cc(OC)c2c(=O)[nH]c(-c3ccc4[nH]c(CO)cc4c3)nc2c1 [Example 53, 2-(2-(Hydroxymethyl)-1H-indol-5-yl)-5,7-dimethoxyquinazolin-4(3H)-one] | Active
16 | COc1cc(OC)c2c(=O)[nH]c(-c3ccc4[nH]c(CCO)cc4c3)nc2c1 [Example 54, 2-(2-(2-Hydroxyethyl)-1H-indol-5-yl)-5,7-dimethoxyquinazolin-4(3H)-one] | Active
17 | COc1cc(OC)c2c(=O)[nH]c(-c3ccc4[nH]c(CN5CCCC5)cc4c3)nc2c1 [Example 55, 5,7-Dimethoxy-2-(2-(pyrrolidin-1-ylmethyl)-1H-indol-5-yl)quinazolin-4(3H)-one] | Active
18 | COc1cc(OC)c2c(=O)[nH]c(-c3ccc4[nH]c(CCN5CCCC5)cc4c3)nc2c1 [Example 57, 5,7-Dimethoxy-2-(2-(2-(pyrrolidin-1-yl)ethyl)-1H-indol-5-yl)quinazolin-4(3H)-one] | Active

Row | Structure (SMILES) | FRET activity (<50 uM)
19 | COc1cc(OC)c2c(=O)[nH]c(-c3ccc4[nH]c(CN(C)C)cc4c3)nc2c1 [Example 58, 2-(2-((Dimethylamino)methyl)-1H-indol-5-yl)-5,7-dimethoxyquinazolin-4(3H)-one] | Active
20 | COc1cc(OC)c2c(=O)[nH]c(-c3ccc(NS(C)(=O)=O)cc3)nc2c1 [Example 59, N-(4-(5,7-Dimethoxy-4-oxo-3,4-dihydroquinazolin-2-yl)phenyl)methanesulfonamide] | Active
21 | COc1cc(OC)c2c(=O)[nH]c(-c3ccc(Nc4ccncc4)cc3)nc2c1 [Example 60, 5,7-Dimethoxy-2-(4-(pyridin-4-ylamino)phenyl)quinazolin-4(3H)-one] | Active
22 | COc1cc(OC)c2c(=O)[nH]c(-c3ccc(Nc4ccc(C)cc4)cc3)nc2c1 [Example 61, 5,7-Dimethoxy-2-(4-(p-tolylamino)phenyl)quinazolin-4(3H)-one] | Inactive
23 | COc1cc(OC)c2c(=O)[nH]c(-c3ccc(Nc4cccnc4)cc3)nc2c1 [Example 62, 5,7-Dimethoxy-2-(4-(pyridin-3-ylamino)phenyl)quinazolin-4(3H)-one] | Active
24 | COc1cc(OC)c2c(=O)[nH]c(-c3ccc(OC4CCN(C(=O)N(C)C)CC4)cc3)nc2c1 [Example 63, 4-(4-(5,7-Dimethoxy-4-oxo-3,4-dihydroquinazolin-2-yl)phenoxy)-N,N-dimethylpiperidine-1-carboxamide] | Active
25 | COc1cc(OC)c2c(=O)[nH]c(-c3ccc(OC4CCN(C(C)=O)CC4)cc3)nc2c1 [Example 64, 2-(4-(1-Acetylpiperidin-4-yloxy)phenyl)-5,7-dimethoxyquinazolin-4(3H)-one] | Active
26 | COc1cc(OC)c2c(=O)[nH]c(-c3cc(C)c(OCCN4Cc5ccccc5C4)c(C)c3)nc2c1 [Example 65, 2-(4-(2-(Isoindolin-2-yl)ethoxy)-3,5-dimethylphenyl)-5,7-dimethoxyquinazolin-4(3H)-one] | Active
27 | COc1cc(OC)c2c(=O)[nH]c(-c3cc(C)c(OCCN4CCCCC4)c(C)c3)nc2c1 [Example 72, 2-(3,5-Dimethyl-4-(2-(piperidin-1-yl)ethoxy)phenyl)-5,7-dimethoxyquinazolin-4(3H)-one] | Active
28 | COc1cc(OC)c2c(=O)[nH]c(-c3cc(C)c(OCCCN4CCCC4)c(C)c3)nc2c1 [Example 75, 2-(3,5-Dimethyl-4-(3-(pyrrolidin-1-yl)propoxy)phenyl)-5,7-dimethoxyquinazolin-4(3H)-one] | Active
29 | Cc1cc(-c2nc3cc(F)cc(N4CCCC4)c3c(=O)[nH]2)cc(C)c1OCCN1CCCC1 [Example 82, 2-(3,5-Dimethyl-4-(2-(pyrrolidin-1-yl)ethoxy)phenyl)-7-fluoro-5-(pyrrolidin-1-yl)quinazolin-4(3H)-one] | Inactive
30 | Cc1cc(-c2nc3cc(F)cc(F)c3c(=O)[nH]2)cc(C)c1OCCN1CCCC1 [Example 85, 2-(3,5-Dimethyl-4-(2-(pyrrolidin-1-yl)ethoxy)phenyl)-5,7-difluoroquinazolin-4(3H)-one] | Inactive
31 | COc1cc(OC)c2c(=O)[nH]c(-c3cc(C)c(OCCN4C(=O)c5ccccc5C4=O)c(C)c3)cc2c1 [Example 90, 2-(2-(4-(6,8-Dimethoxy-1-oxo-1,2-dihydroisoquinolin-3-yl)-2,6-dimethylphenoxy)ethyl)isoindoline-1,3-dione] | Inactive
32 | Cc1cc(-c2nc3nc(OC(C)C)cc(OC(C)C)c3c(=O)[nH]2)cc(C)c1OCCN1CCCC1 [Example 91, 2-(3,5-Dimethyl-4-(2-(pyrrolidin-1-yl)ethoxy)phenyl)-5,7-diisopropoxypyrido[2,3-d]pyrimidin-4(3H)-one] | Inactive
33 | COc1cc(OC)c2c(=O)[nH]c(-c3cc(C)c(OC[C@@H]4CCC(=O)N4)c(C)c3)nc2c1 [Example 92, (S)-2-(3,5-Dimethyl-4-((5-oxopyrrolidin-2-yl)methoxy)phenyl)-5,7-dimethoxyquinazolin-4(3H)-one] | Active
34 | COc1cc(OC)c2c(=O)[nH]c(-c3ccc(CN4CCN(C(C)C)CC4)cc3)nc2c1 [Example 93, 2-(4-((4-Isopropylpiperazin-1-yl)methyl)phenyl)-5,7-dimethoxyquinazolin-4(3H)-one] | Active
35 | COc1cc(OC)c2c(=O)[nH]c(-c3ccc(CN4CCC(N(C(C)=O)C(C)C)CC4)cc3)nc2c1 [Example 94, N-(1-(4-(5,7-Dimethoxy-4-oxo-3,4-dihydroquinazolin-2-yl)benzyl)piperidin-4-yl)-N-isopropylacetamide] | Active
